BigSolDB 2.1

COc1cc2c(cc1OC)C(=O)C(CC1CCN(Cc3ccccc3)CC1)C2.Cl (stereo not drawn)
solubility (mole fraction)
Conditions | in DMF | in ethanol | in methanol | in n-propanol
278.15 K | 0.00119 | 0.000291 | 0.00167 | 0.000112
283.15 K | 0.00135 | 0.000379 | 0.00222 | 0.000153
288.15 K | 0.00152 | 0.000484 | 0.00287 | 0.000214
293.15 K | 0.00173 | 0.000609 | 0.00375 | 0.000301
298.15 K | 0.00196 | 0.000768 | 0.00483 | 0.000404
303.15 K | 0.00222 | 0.000951 | 0.00636 | 0.000543
308.15 K | 0.00251 | 0.00118 | 0.00803 | 0.000743
313.15 K | 0.00286 | 0.00145 | 0.0105 | 0.00102
318.15 K | 0.00325 | 0.00177 | 0.0133 | 0.00133
323.15 K | 0.00368 | 0.00215 | 0.017 | 0.0018
328.15 K | 0.00418 | 0.00259 | 0.0216 | 0.00241
333.15 K | 0.00476 | 0.00308 | 0.0277 | 0.00321
